ChEMBL document CHEMBL3763039, “Development and Characterization of Potent Cyclic Acyldepsipeptide Analogues with Increased Antimicrobial Activity” (2016)
Values after ≈ are worked out from the molar mass of the structure shown. Where a SMILES comes first, the peptide text is derived from it. Bridges are numbered along the chain shown (N, C = ends). [ ]: non-standard residue; d: D form. The star is where a group is joined. Phe(F5) = N[C@@H](Cc1c(F)c(F)c(F)c(F)c1F)C(=O)O; Phe(3,5-F2) = N[C@@H](Cc1cc(F)cc(F)c1)C(=O)O; Pip(4S-Me) = C[C@H]1CCN[C@H](C(=O)O)C1; 2Nal = N[C@@H](Cc1ccc2ccccc2c1)C(=O)O; Pro(4R-Me) = C[C@H]1CN[C@H](C(=O)O)C1; Heptenoyl(2E) = CCCC/C=C/C(=O)*; Cha = N[C@@H](CC1CCCCC1)C(=O)O; aThr = C[C@H](O)[C@H](N)C(=O)O; Pip = O=C(O)[C@@H]1CCCCN1; Abu = CC[C@H](N)C(=O)O

What was measured:
Type in all cases: functional
Neisseria meningitidis [1] = experiment: Antibacterial activity against Neisseria meningitidis H44/76 incubated for 16 to 18 hrs by broth microdilution method
Neisseria meningitidis [2] = experiment: Antibacterial activity against clpP deficient Neisseria meningitidis H44/76 incubated for 16 to 18 hrs by broth microdilution method
Neisseria gonorrhoeae = experiment: Antibacterial activity against chloramphenicol-resistant Neisseria gonorrhoeae N.279 incubated for 16 to 18 hrs by broth microdilution method
Escherichia coli [3] = experiment: Antibacterial activity against Escherichia coli MC4100 incubated for 16 to 18 hrs by broth microdilution method
Escherichia coli [4] = experiment: Antibacterial activity against Escherichia coli MC4100 expressing lptD-4213 incubated for 16 to 18 hrs by broth microdilution method
Pseudomonas aeruginosa = experiment: Antibacterial activity against Pseudomonas aeruginosa PAO1 incubated for 16 to 18 hrs by broth microdilution method
Staphylococcus aureus [5] = experiment: Antibacterial activity against methicillin-resistant Staphylococcus aureus 1784A incubated for 16 to 18 hrs by broth microdilution method
Staphylococcus aureus [6] = experiment: Antibacterial activity against Staphylococcus aureus subsp. aureus Newman clinical isolate incubated for 16 to 18 hrs by broth microdilution method
Staphylococcus aureus [7] = experiment: Antibacterial activity against Staphylococcus aureus ATCC 29213 incubated for 16 to 18 hrs by broth microdilution method
Enterococcus faecalis = experiment: Antibacterial activity against vancomycin-resistant Enterococcus faecalis V583 incubated for 16 to 18 hrs by broth microdilution method
Streptococcus pneumoniae = experiment: Antibacterial activity against Streptococcus pneumoniae D39 incubated for 16 to 18 hrs by broth microdilution method
Bacillus subtilis = experiment: Antibacterial activity against Bacillus subtilis PY79 incubated for 16 to 18 hrs by broth microdilution method
Listeria innocua = experiment: Antibacterial activity against Listeria innocua incubated for 16 to 18 hrs by broth microdilution method

Compound | MIC (Neisseria meningitidis [1]) | MIC (Neisseria meningitidis [2]) | MIC (Neisseria gonorrhoeae) | MIC (Escherichia coli [3]) | MIC (Escherichia coli [4]) | MIC (Pseudomonas aeruginosa) | MIC (Staphylococcus aureus [5]) | MIC (Staphylococcus aureus [6]) | MIC (Staphylococcus aureus [7]) | MIC (Enterococcus faecalis) | MIC (Streptococcus pneumoniae) | MIC (Bacillus subtilis) | MIC (Listeria innocua)
O=C(N[C@H](CO)[C@H](O)c1ccc([N+](=O)[O-])cc1)C(Cl)Cl [CHLORAMPHENICOL] | 0.5 µg/mL (≈ 1.55 µM) | 1 µg/mL (≈ 3.09 µM) | 64 µg/mL (≈ 198 µM) | 3.1 µg/mL (≈ 9.59 µM) | 2 µg/mL (≈ 6.19 µM) | 8 µg/mL (≈ 24.8 µM) |  |  |  |  |  |  | 
CCCC/C=C/C(=O)N[C@@H](Cc1ccc2ccccc2c1)C(=O)N[C@H]1COC(=O)[C@@H]2C[C@@H](C)CN2C(=O)[C@H](CC)NC(=O)[C@@H]2CCCCN2C(=O)[C@@H]2CCCN2C1=O ({Heptenoyl(2E)}-[2Nal]SP[Pip][Abu][Pro(4R-Me)]; ester 2-C) | 32 µg/mL (≈ 40.1 µM) |  | > 128 µg/mL | > 128 µg/mL | > 128 µg/mL | > 128 µg/mL | > 128 µg/mL | > 128 µg/mL | > 128 µg/mL | 32 µg/mL (≈ 40.1 µM) | 2 µg/mL (≈ 2.5 µM) | 128 µg/mL (≈ 160 µM) | 0.5 µg/mL (≈ 0.626 µM)
CCCC/C=C/C(=O)N[C@@H](Cc1cc(F)cc(F)c1)C(=O)N[C@H]1COC(=O)[C@@H]2C[C@@H](C)CN2C(=O)[C@H](CC)NC(=O)[C@@H]2CCCN2C(=O)[C@@H]2CCCN2C1=O ({Heptenoyl(2E)}-[Phe(3,5-F2)]SPP[Abu][Pro(4R-Me)]; ester 2-C) | 4 µg/mL (≈ 5.19 µM) |  | 4 µg/mL (≈ 5.19 µM) | > 128 µg/mL | > 128 µg/mL | > 128 µg/mL | 2 µg/mL (≈ 2.59 µM) | 2 µg/mL (≈ 2.59 µM) | 2 µg/mL (≈ 2.59 µM) | 0.25 µg/mL (≈ 0.324 µM) | 0.5 µg/mL (≈ 0.649 µM) | 0.125 µg/mL (≈ 0.162 µM) | ≤ 0.0625 µg/mL
CCCC/C=C/C(=O)N[C@@H](Cc1cc(F)cc(F)c1)C(=O)N[C@@H]1C(=O)N2CCC[C@H]2C(=O)N2CC[C@H](C)C[C@H]2C(=O)N[C@@H](C)C(=O)N2CCC[C@H]2C(=O)O[C@H]1C ({Heptenoyl(2E)}-[Phe(3,5-F2)][aThr]P[Pip(4S-Me)]AP; ester 2-C) | 0.125 µg/mL (≈ 0.159 µM) |  | 0.125 µg/mL (≈ 0.159 µM) | > 128 µg/mL | > 128 µg/mL | > 128 µg/mL | 1 µg/mL (≈ 1.27 µM) | 0.5 µg/mL (≈ 0.637 µM) | 0.0078 µg/mL (≈ 0.00994 µM) | 0.0156 µg/mL (≈ 0.0199 µM) | ≤ 0.0625 µg/mL | ≤ 0.0625 µg/mL | ≤ 0.0625 µg/mL
CCCC/C=C/C(=O)N[C@@H](Cc1cc(F)cc(F)c1)C(=O)N[C@@H]1C(=O)N2CCC[C@H]2C(=O)N2CCCC[C@H]2C(=O)N[C@@H](C)C(=O)N2CCC[C@H]2C(=O)O[C@H]1C | 0.25 µg/mL (≈ 0.324 µM) |  | 0.125 µg/mL (≈ 0.162 µM) | > 128 µg/mL | > 128 µg/mL | > 128 µg/mL | 0.125 µg/mL (≈ 0.162 µM) | 0.0625 µg/mL (≈ 0.0811 µM) | 0.0078 µg/mL (≈ 0.0101 µM) | 0.0078 µg/mL (≈ 0.0101 µM) | ≤ 0.0625 µg/mL | ≤ 0.0625 µg/mL | ≤ 0.0625 µg/mL
CCCC/C=C/C(=O)N[C@@H](Cc1c(F)c(F)c(F)c(F)c1F)C(=O)N[C@H]1COC(=O)[C@@H]2C[C@@H](C)CN2C(=O)[C@H](CC)NC(=O)[C@@H]2CCCCN2C(=O)[C@@H]2CCCN2C1=O ({Heptenoyl(2E)}-[Phe(F5)]SP[Pip][Abu][Pro(4R-Me)]; ester 2-C) | 32 µg/mL (≈ 38.1 µM) |  | 32 µg/mL (≈ 38.1 µM) | > 128 µg/mL | > 128 µg/mL | > 128 µg/mL | > 128 µg/mL | > 128 µg/mL | > 128 µg/mL | 16 µg/mL (≈ 19.1 µM) | > 128 µg/mL | 128 µg/mL (≈ 153 µM) | 4 µg/mL (≈ 4.77 µM)
CCCC/C=C/C(=O)N[C@@H](CC1CCCCC1)C(=O)N[C@H]1COC(=O)[C@@H]2C[C@@H](C)CN2C(=O)[C@H](CC)NC(=O)[C@@H]2CCCCN2C(=O)[C@@H]2CCCN2C1=O ({Heptenoyl(2E)}-[Cha]SP[Pip][Abu][Pro(4R-Me)]; ester 2-C) | 32 µg/mL (≈ 42.4 µM) |  | 32 µg/mL (≈ 42.4 µM) | > 128 µg/mL | > 128 µg/mL | > 128 µg/mL | 4 µg/mL (≈ 5.3 µM) | 1 µg/mL (≈ 1.32 µM) | 1 µg/mL (≈ 1.32 µM) | 1 µg/mL (≈ 1.32 µM) | 0.5 µg/mL (≈ 0.662 µM) | 2 µg/mL (≈ 2.65 µM) | ≤ 0.0625 µg/mL
